A word on the pA2: it is the negative logarithm of the molar antagonist concentration that doubles the agonist concentration needed for the same response. A lower pA2 goes with a weaker antagonist.

For the assay, the target named is T1, Adrenergic receptor alpha-1 (Rattus norvegicus, UniProt P15823+P23944+P43140).
T1 sequence (P15823 whole entry): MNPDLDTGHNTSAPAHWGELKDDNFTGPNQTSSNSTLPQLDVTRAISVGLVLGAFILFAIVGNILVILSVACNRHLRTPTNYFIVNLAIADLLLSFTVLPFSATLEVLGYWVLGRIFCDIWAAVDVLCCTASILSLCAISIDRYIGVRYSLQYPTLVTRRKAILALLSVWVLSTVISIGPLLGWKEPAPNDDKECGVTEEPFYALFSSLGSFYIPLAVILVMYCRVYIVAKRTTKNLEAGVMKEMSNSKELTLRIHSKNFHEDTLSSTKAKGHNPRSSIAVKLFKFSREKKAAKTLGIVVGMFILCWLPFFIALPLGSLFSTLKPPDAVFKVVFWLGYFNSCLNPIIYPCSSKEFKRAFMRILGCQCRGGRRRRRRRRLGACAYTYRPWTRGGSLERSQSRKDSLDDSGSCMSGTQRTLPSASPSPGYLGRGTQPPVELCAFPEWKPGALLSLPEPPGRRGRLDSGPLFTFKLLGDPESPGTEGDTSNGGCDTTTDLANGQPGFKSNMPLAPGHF
T1 sequence (P23944 whole entry): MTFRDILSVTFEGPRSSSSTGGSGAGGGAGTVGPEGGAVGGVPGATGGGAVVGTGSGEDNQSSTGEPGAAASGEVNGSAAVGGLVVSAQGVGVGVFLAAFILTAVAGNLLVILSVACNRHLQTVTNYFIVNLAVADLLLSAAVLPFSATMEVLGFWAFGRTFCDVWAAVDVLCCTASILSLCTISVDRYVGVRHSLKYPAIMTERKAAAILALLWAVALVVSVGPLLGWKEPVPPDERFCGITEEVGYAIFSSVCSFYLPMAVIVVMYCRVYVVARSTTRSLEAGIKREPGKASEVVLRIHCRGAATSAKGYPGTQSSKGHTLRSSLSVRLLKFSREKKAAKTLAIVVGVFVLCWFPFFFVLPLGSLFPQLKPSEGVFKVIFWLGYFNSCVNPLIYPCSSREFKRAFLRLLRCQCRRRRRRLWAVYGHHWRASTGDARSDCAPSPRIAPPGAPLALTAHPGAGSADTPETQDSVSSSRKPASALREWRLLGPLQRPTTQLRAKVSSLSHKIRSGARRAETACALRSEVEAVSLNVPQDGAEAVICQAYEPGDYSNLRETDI
T1 sequence (P43140 whole entry): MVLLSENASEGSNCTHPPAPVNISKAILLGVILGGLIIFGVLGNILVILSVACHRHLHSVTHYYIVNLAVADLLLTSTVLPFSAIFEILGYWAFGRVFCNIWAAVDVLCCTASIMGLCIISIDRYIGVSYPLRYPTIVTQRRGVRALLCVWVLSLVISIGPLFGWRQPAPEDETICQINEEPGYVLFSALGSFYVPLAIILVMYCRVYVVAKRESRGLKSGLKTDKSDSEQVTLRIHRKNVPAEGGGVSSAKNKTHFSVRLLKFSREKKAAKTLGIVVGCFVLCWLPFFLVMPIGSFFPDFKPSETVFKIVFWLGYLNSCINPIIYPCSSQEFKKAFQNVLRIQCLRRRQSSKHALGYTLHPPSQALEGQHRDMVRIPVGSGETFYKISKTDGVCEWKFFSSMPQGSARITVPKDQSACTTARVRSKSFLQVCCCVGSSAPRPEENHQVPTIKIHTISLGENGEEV
In words: Antagonistic activity for Alpha-1 adrenergic receptor was measured as inhibition of phenylephrine-[…] contractions in isolated Sprague-Dawley rat anacoccygeal muscles. It is filed as functional.
Consider `COc1ccccc1N1CCN(CCNC(=O)c2ccco2)CC1`, for which the pA2 turned out to be 9.12.

On to `Cc1ccc(N2CCN(CCNC(=O)c3ccco3)CC2)c(C)c1`, for which the pA2 is on record as 7.72.

Turning to `Cc1ccc(N2CCN(CCNC(=O)c3cccnc3)CC2)cc1`, the pA2 came out at 6.53.

`COc1cccc(N2CCN(CCNC(=O)c3ccco3)CC2)c1` gave a pA2 of 8.56.

The compound `COc1ccc(N2CCN(CCNC(=O)c3ccco3)CC2)cc1` registered a pA2 of 7.85.

Compound `Cc1ccc(N2CCN(CCNC(=O)c3ccncc3)CC2)cc1` displayed a pA2 of 6.5.

`COc1ccccc1N1CCN(CCNC(=O)c2cc3ccccc3oc2=O)CC1` yielded a pA2 of 7.71.

`COc1ccc(Cl)cc1N1CCN(CCNC(=O)c2ccco2)CC1` came in with a pA2 of 8.56.

On to `COc1ccc(N2CCN(CCNC(=O)c3ccncc3)CC2)cc1`, for which the pA2 is reported as 5.95.

The compound `COc1ccc(Cl)cc1N1CCN(CCNC(=O)c2cc3ccccc3o2)CC1` yielded a pA2 of 5.63.

Compound `Cc1ccc(N2CCN(CCNC(=O)c3cc4ccccc4o3)CC2)cc1` returned a pA2 of 6.92.

Take `Cc1ccc(N2CCN(CCNC(=O)c3cccnc3)CC2)c(C)c1`: the pA2 is reported as 5.94.

Compound `COc1ccccc1N1CCN(CCNC(=O)c2cccnc2)CC1` yielded a pA2 of 7.87.

`Cc1ccc(N2CCN(CCNC(=O)c3cc4ccccc4o3)CC2)c(C)c1` had a pA2 of 7.36.

Take `COc1ccc(N2CCN(CCNC(=O)c3cccnc3)CC2)cc1`: the pA2 was found to be 5.79.

Consider `COc1ccc(Cl)cc1N1CCN(CCNC(=O)c2cc3ccccc3oc2=O)CC1`, for which the pA2 stood at 7.31.

Take `Cc1ccc(N2CCN(CCNC(=O)c3ccco3)CC2)cc1`: the pA2 is given as 6.47.

The compound `COc1ccc(Cl)cc1N1CCN(CCNC(=O)c2ccncc2)CC1` yielded a pA2 of 7.18.

The compound `COc1ccc(N2CCN(CCNC(=O)c3cc4ccccc4oc3=O)CC2)cc1` came in with a pA2 of 7.74.

Consider `COc1ccc(Cl)cc1N1CCN(CCNC(=O)c2cccnc2)CC1`, for which the pA2 is reported as 5.56.

On to `Cc1ccc(N2CCN(CCNC(=O)c3ccncc3)CC2)c(C)c1`, for which the pA2 was found to be 7.07.

For the origin of these results see ChEMBL document CHEMBL1139644, “Pharmacophore-based design, synthesis, biological evaluation, and 3D-QSAR studies of aryl-piperazines as alpha(1)-adrenoceptor antagonists” (Bioorg Med Chem Lett, 2005).
